Source: the supplement of paper PMC10883282
± gives the standard deviation of the averaged measurements.

Key:
Experiment in all cases: relative viability vs DMSO control (72 h) (fraction); higher = more viable cells
A204 = test system: A204
Method in brief: (§1)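 Percent growth from ATPLite readings, averaged over up to triplicate wells, was used as relative viability. Sarcoma cell lines were seeded into 384-well plates for 80–90% confluence, dosed after 24 h, and kept 72 h at 37 °C, 5% CO2. Data were rescaled to a range where 1 is full and 0 is none.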

G401 = test system: G401
Method in brief: as §1

SYO-1 = test system: SYO-1
Method in brief: as §1

SW982 = test system: SW982
Method in brief: as §1

SW1353 = test system: SW1353
Method in brief: as §1

HT1080 = test system: HT1080
Method in brief: as §1

KHOS-NP = test system: KHOS-NP
Method in brief: as §1

SW684 = test system: SW684
Method in brief: as §1

RD-ES = test system: RD-ES
Method in brief: as §1

KHOS-240S = test system: KHOS-240S
Method in brief: as §1

SK-ES-1 = test system: SK-ES-1
Method in brief: as §1

SW872 = test system: SW872
Method in brief: as §1

COc1cc2nccc(Oc3ccc(NC(=O)NC4CC4)c(Cl)c3)c2cc1C(N)=O [Lenvatinib]
Details	relative viability
A204, 0.00017 µM	1 ± 0.045
A204, 0.00051 µM	1.04 ± 0.068
A204, 0.00152 µM	1.03 ± 0.08
A204, 0.00457 µM	1.02 ± 0.023
A204, 0.01372 µM	0.79 ± 0.05
A204, 0.04115 µM	0.551 ± 0.04
A204, 0.1235 µM	0.406 ± 0.046
A204, 0.3704 µM	0.345 ± 0.0098
A204, 1.111 µM	0.267 ± 0.038
A204, 3.333 µM	0.186 ± 0.0089
A204, 10 µM	0.167 ± 0.018
G401, 0.00017 µM	0.992 ± 0.036
G401, 0.00051 µM	0.981 ± 0.017
G401, 0.00152 µM	1.01 ± 0.018
G401, 0.00457 µM	0.982 ± 0.025
G401, 0.01372 µM	1.006 ± 0.0088
G401, 0.04115 µM	0.974 ± 0.04
G401, 0.1235 µM	0.919 ± 0.04
G401, 0.3704 µM	0.848 ± 0.022
G401, 1.111 µM	0.55 ± 0.021
G401, 3.333 µM	0.434 ± 0.017
G401, 10 µM	0.357 ± 0.033
HT1080, 0.00017 µM	1.07 ± 0.03
HT1080, 0.00051 µM	1.06 ± 0.023
HT1080, 0.00152 µM	1.08 ± 0.051
HT1080, 0.00457 µM	1.05 ± 0.078
HT1080, 0.01372 µM	1.08 ± 0.051
HT1080, 0.04115 µM	1.06 ± 0.014
HT1080, 0.1235 µM	1.06 ± 0.042
HT1080, 0.3704 µM	1.07 ± 0.057
HT1080, 1.111 µM	1.09 ± 0.063
HT1080, 3.333 µM	1.09 ± 0.048
HT1080, 10 µM	1.12 ± 0.085
KHOS-240S, 0.00017 µM	0.992 ± 0.044
KHOS-240S, 0.00051 µM	1 ± 0.03
KHOS-240S, 0.00152 µM	1.03 ± 0.022
KHOS-240S, 0.00457 µM	1.01 ± 0.04
KHOS-240S, 0.01372 µM	0.977 ± 0.041
KHOS-240S, 0.04115 µM	0.938 ± 0.044
KHOS-240S, 0.1235 µM	0.913 ± 0.031
KHOS-240S, 0.3704 µM	0.824 ± 0.0087
KHOS-240S, 1.111 µM	0.738 ± 0.037
KHOS-240S, 3.333 µM	0.72 ± 0.025
KHOS-240S, 10 µM	0.6606 ± 0.0029
KHOS-NP, 0.00017 µM	1.07 ± 0.045
KHOS-NP, 0.00051 µM	1.04 ± 0.012
KHOS-NP, 0.00152 µM	1.05 ± 0.016
KHOS-NP, 0.00457 µM	1.07 ± 0.018
KHOS-NP, 0.01372 µM	1.08 ± 0.021
KHOS-NP, 0.04115 µM	1.08 ± 0.011
KHOS-NP, 0.1235 µM	1.06 ± 0.03
KHOS-NP, 0.3704 µM	1.091 ± 0.0063
KHOS-NP, 1.111 µM	1.07 ± 0.0038
KHOS-NP, 3.333 µM	1.09 ± 0.021
KHOS-NP, 10 µM	1.08 ± 0.015
RD-ES, 0.00017 µM	0.959 ± 0.049
RD-ES, 0.00051 µM	0.98 ± 0.051
RD-ES, 0.00152 µM	0.959 ± 0.042
RD-ES, 0.00457 µM	0.961 ± 0.024
RD-ES, 0.01372 µM	0.923 ± 0.039
RD-ES, 0.04115 µM	0.942 ± 0.047
RD-ES, 0.1235 µM	0.875 ± 0.055
RD-ES, 0.3704 µM	0.857 ± 0.052
RD-ES, 1.111 µM	0.852 ± 0.022
RD-ES, 3.333 µM	0.835 ± 0.025
RD-ES, 10 µM	0.815 ± 0.04
SK-ES-1, 0.00017 µM	0.985 ± 0.02
SK-ES-1, 0.00051 µM	1.01 ± 0.05
SK-ES-1, 0.00152 µM	0.9845 ± 0.0066
SK-ES-1, 0.00457 µM	0.958 ± 0.065
SK-ES-1, 0.01372 µM	0.979 ± 0.066
SK-ES-1, 0.04115 µM	0.938 ± 0.026
SK-ES-1, 0.1235 µM	0.911 ± 0.074
SK-ES-1, 0.3704 µM	0.881 ± 0.019
SK-ES-1, 1.111 µM	0.791 ± 0.061
SK-ES-1, 3.333 µM	0.689 ± 0.025
SK-ES-1, 10 µM	0.593 ± 0.032
SW684, 0.00017 µM	1.13 ± 0.024
SW684, 0.00051 µM	1.12 ± 0.08
SW684, 0.00152 µM	1.14 ± 0.015
SW684, 0.00457 µM	1.133 ± 0.0058
SW684, 0.01372 µM	1.13 ± 0.012
SW684, 0.04115 µM	1.13 ± 0.059
SW684, 0.1235 µM	1.11 ± 0.049
SW684, 0.3704 µM	1.14 ± 0.028
SW684, 1.111 µM	1.16 ± 0.042
SW684, 3.333 µM	1.19 ± 0.0064
SW684, 10 µM	1.11 ± 0.043
SW872, 0.00017 µM	1.07 ± 0.051
SW872, 0.00051 µM	1.1 ± 0.02
SW872, 0.00152 µM	1.08 ± 0.05
SW872, 0.00457 µM	1.07 ± 0.024
SW872, 0.01372 µM	1.05 ± 0.025
SW872, 0.04115 µM	1.05 ± 0.054
SW872, 0.1235 µM	1.03 ± 0.036
SW872, 0.3704 µM	1.05 ± 0.047
SW872, 1.111 µM	1.06 ± 0.043
SW872, 3.333 µM	1.05 ± 0.043
SW872, 10 µM	0.953 ± 0.01
SW982, 0.00017 µM	1 ± 0.052
SW982, 0.00051 µM	0.993 ± 0.033
SW982, 0.00152 µM	0.998 ± 0.017
SW982, 0.00457 µM	0.9857 ± 0.0098
SW982, 0.01372 µM	0.989 ± 0.033
SW982, 0.04115 µM	0.99 ± 0.023
SW982, 0.1235 µM	0.982 ± 0.036
SW982, 0.3704 µM	0.968 ± 0.035
SW982, 1.111 µM	0.947 ± 0.034
SW982, 3.333 µM	0.926 ± 0.018
SW982, 10 µM	0.8573 ± 0.0049
SW1353, 0.00017 µM	1.01 ± 0.046
SW1353, 0.00051 µM	0.999 ± 0.033
SW1353, 0.00152 µM	0.986 ± 0.062
SW1353, 0.00457 µM	0.982 ± 0.016
SW1353, 0.01372 µM	0.931 ± 0.043
SW1353, 0.04115 µM	0.943 ± 0.0073
SW1353, 0.1235 µM	0.902 ± 0.014
SW1353, 0.3704 µM	0.872 ± 0.014
SW1353, 1.111 µM	0.859 ± 0.05
SW1353, 3.333 µM	0.83 ± 0.029
SW1353, 10 µM	0.817 ± 0.032
SYO-1, 0.00017 µM	1.07 ± 0.032
SYO-1, 0.00051 µM	1.02 ± 0.065
SYO-1, 0.00152 µM	1.02 ± 0.06
SYO-1, 0.00457 µM	0.9627 ± 0.0016
SYO-1, 0.01372 µM	0.864 ± 0.027
SYO-1, 0.04115 µM	0.721 ± 0.029
SYO-1, 0.1235 µM	0.606 ± 0.013
SYO-1, 0.3704 µM	0.504 ± 0.033
SYO-1, 1.111 µM	0.472 ± 0.029
SYO-1, 3.333 µM	0.459 ± 0.024
SYO-1, 10 µM	0.432 ± 0.017
